Reference: patent US8975398B2, “NAMPT inhibitors” (AbbVie Inc., priority 2012, dated 2015)

Assays:
[1] = target: NAMPT (Homo sapiens, UniProt P43490); experiment: Time-Resolved Fluorescence Resonance Energy Transfer (TR-FRET) Binding Assay of NAMPT with PRPP; settings: 2 nM NAMPT, 2 nM probe, 200 uM PRPP and 2.5 mM ATP, equilibrated 16 hours
Outline: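 Final mix: 2 nM NAMPT, 2 nM probe, 1 nM Tb-anti-His antibody, 200 uM PRPP, 2.5 mM ATP, 2% DMSO in 1× assay buffer. Equilibrated 16 hours before TR-FRET read, allowing possible enzymatic modification of compounds.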

[2] = target: NAMPT (human, recombinant, C-terminally His-tagged) (Homo sapiens, UniProt P43490); experiment: Time-Resolved Fluorescence Resonance Energy Transfer (TR-FRET) Binding Assay of NAMPT; settings: 6.8 nM NAMPT, 200 nM probe, equilibrated 3 hours, absence of substrates
NAMPT (human, recombinant, C-terminally His-tagged), sequence (P43490 whole entry): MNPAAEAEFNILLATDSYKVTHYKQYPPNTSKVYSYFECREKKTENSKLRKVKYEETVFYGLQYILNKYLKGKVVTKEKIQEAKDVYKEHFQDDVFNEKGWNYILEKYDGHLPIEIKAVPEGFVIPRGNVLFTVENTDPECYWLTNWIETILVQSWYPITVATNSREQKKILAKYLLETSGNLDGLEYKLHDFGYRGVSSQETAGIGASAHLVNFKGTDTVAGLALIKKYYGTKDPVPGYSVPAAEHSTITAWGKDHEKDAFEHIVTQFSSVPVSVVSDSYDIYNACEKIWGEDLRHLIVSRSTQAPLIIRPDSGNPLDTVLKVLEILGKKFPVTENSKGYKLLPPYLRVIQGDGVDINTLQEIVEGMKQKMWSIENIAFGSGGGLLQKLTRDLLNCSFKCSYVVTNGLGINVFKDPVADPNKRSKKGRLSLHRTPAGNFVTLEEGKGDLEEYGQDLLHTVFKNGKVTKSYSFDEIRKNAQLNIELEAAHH
Outline: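 Recombinant C-terminally His-tagged human NAMPT (6.8 nM) incubated 3 h at room temperature with 200 nM Oregon Green 488–labelled nicotinamide-competitive probe and 1 nM Tb-anti-His antibody in HEPES pH 7.5, 2% DMSO. TR-FRET ratio Em520/Em495 normalized to controls; IC50 from four-parameter logistic fit.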

NAMPT, sequence (P43490 whole entry): as above

| SMILES | IC50 [1] [nM] | IC50 [2] [nM] |
| --- | --- | --- |
| Cc1cccc(C(=O)N2CCC(c3ccc(NC(=O)C4CN(c5cccnn5)C4)cc3)CC2)c1C [Example 357, N-{4-[1-(2,3-dimethylbenzoyl)piperidin-4-yl]phenyl}-1-(pyridazin-3-yl)azetidine-3-carboxamide] | 1.14 | 17.7 |
| N#Cc1ccc(C(=O)N2CCC(c3ccc(NC(=O)C4CN(c5cccnn5)C4)cc3)CC2)cc1 [Example 353, N-{4-[1-(4-cyanobenzoyl)piperidin-4-yl]phenyl}-1-(pyridazin-3-yl)azetidine-3-carboxamide] | 0.472 | 88.2 |
| O=C(Nc1ccc(OC2CCN(C(=O)c3cccc(Cl)c3)CC2)cc1)C1CN(c2cccnn2)C1 [Example 250, N-(4-{[1-(3-chlorobenzoyl)piperidin-4-yl]oxy}phenyl)-1-(pyridazin-3-yl)azetidine-3-carboxamide] | 0.641 | 107 |
| O=C(Nc1ccc(C2CCN(C(=O)Cc3cc(F)ccc3F)CC2)cc1)C1CN(c2cccnn2)C1 [Example 373, N-(4-{1-[(2,5-difluorophenyl)acetyl]piperidin-4-yl}phenyl)-1-(pyridazin-3-yl)azetidine-3-carboxamide] | 0.576 | 22.4 |
| Cc1ccncc1N1CC(C(=O)Nc2ccc(C3CCN(C(=O)C(C)(C)O)CC3)cc2)C1 [Example 72, N-{4-[1-(2-hydroxy-2-methylpropanoyl)piperidin-4-yl]phenyl}-1-(4-methylpyridin-3-yl)azetidine-3-carboxamide] | 7.34 | 6.54 |

Now from value to compound:

| IC50 [1] [nM] | IC50 [2] [nM] | SMILES |
| --- | --- | --- |
| 89.5 | 117 | O=C(Nc1ccc(OC2CN(C(=O)C3CCC(F)(F)CC3)C2)cc1)C1CN(c2ccnnc2)C1 [Example 202, N-[4-({1-[(4,4-difluorocyclohexyl)carbonyl]azetidin-3-yl}oxy)phenyl]-1-(pyridazin-4-yl)azetidine-3-carboxamide] |
| 0.832 | 3010 | CC(C)CCN1CCC(Oc2ccc(NC(=O)C3CN(c4cccnc4)C3)cc2)CC1 [Example 77, N-(4-{[1-(3-methylbutyl)piperidin-4-yl]oxy}phenyl)-1-(pyridin-3-yl)azetidine-3-carboxamide] |
| 32.2 | 72.3 | O=C(Nc1ccc(OC2CCN(C(=O)c3nccs3)CC2)cc1)C1CN(c2ccnnc2)C1 [Example 283, 1-(pyridazin-4-yl)-N-(4-{[1-(1,3-thiazol-2-ylcarbonyl)piperidin-4-yl]oxy}phenyl)azetidine-3-carboxamide] |
| 39.1 | 64.2 | CCC(C)(C)C(=O)N1CCC(Oc2ccc(NC(=O)C3CN(c4ccnnc4)C3)cc2)CC1 [Example 300, N-(4-{[1-(2,2-dimethylbutanoyl)piperidin-4-yl]oxy}phenyl)-1-(pyridazin-4-yl)azetidine-3-carboxamide] |
| 0.632 | 265 | CCC(CC)CN1CCC(Oc2ccc(NC(=O)C3CN(c4cccnc4)C3)cc2)CC1 [Example 78, N-(4-{[1-(2-ethylbutyl)piperidin-4-yl]oxy}phenyl)-1-(pyridin-3-yl)azetidine-3-carboxamide] |
| 34.8 | 108 | O=C(Nc1ccc(OC2CN(C(=O)CC(F)(F)F)C2)cc1)C1CN(c2ccnnc2)C1 [Example 258, 1-(pyridazin-4-yl)-N-(4-{[1-(3,3,3-trifluoropropanoyl)azetidin-3-yl]oxy}phenyl)azetidine-3-carboxamide] |
